Results published in patent US20240174690A1, “ANNULATED 2-AMINO-3-CYANO THIOPHENES AND DERIVATIVES FOR THE TREATMENT OF CANCER” (BOEHRINGER INGELHEIM INTERNATIONAL GMBH, priority 2021, published 2024).
≈ marks a conversion by molar mass, not a printed value. Where two headings read alike, the source gives them in different places.

How the values were obtained:
[1] = Plasma protein binding assay (PPB), equilibrium dialysis, 10% FCS in PBS; type: in vitro ADME; conditions: bovine, read-out: PPB 10% FCS (% fu)
Method in brief: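 Equilibrium dialysis (5-10 kg/mol cut-off membrane) of 1-10 μmol/L test compound in 10% FCS/PBS against PBS with or without dextran, 3-5 h at 37° C. Compound in each chamber quantified by LC-MS after protein precipitation; fu calculated from Cserum and Cbuffer.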

NCI-H2122 cells = test: NCI-H2122 CTG proliferation assay (120 h) (NSCLC, G12C); type: cell-based; conditions: Homo sapiens
Method in brief: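 NCI-H2122 cells (KRAS G12C NSCLC), 200 per well in RPMI with 10% FCS, were dosed with compound on day 1 and incubated 120 h at 37 °C. Viability was read by CellTiter-Glo luminescence as percent of DMSO control, and IC50 was fitted with a four-parameter model.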

[2] = Solubility measurement (DMSO solution method), McIlvaine buffer pH 4.5 or 6.8; type: physicochemical; conditions: aqueous buffer, kinetic from dmso stock, DMSO stock diluted to 250 μM, 24 h shaking at ambient temperature
Method in brief: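 DMSO stock diluted into McIlvaine buffer, pH 4.5 or 6.8, to 250 µM final, shaken 24 h at ambient temperature. Precipitate removed by filtration; filtrate quantified by LC-UV against a fully dissolved reference in acetonitrile/water 1:1.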

[3] = test system: KRAS G12C-dependent Ba/F3 cells; test: Ba/F3 proliferation assay, KRAS G12C; type: cell-based; conditions: Mus musculus, BaF3, 72 h, AlamarBlue
Method in brief: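 Transforming KRAS G12 mutants replaced IL-3 dependence in retrovirally engineered Ba/F3 cells, with puromycin omitted about ten days before testing. Growth under compound was quantified with an AlamarBlue fluorescent viability stain, in duplicate, by curve fitting.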

LOVO cells = test: LOVO CTG proliferation assay (120 h) (CRC, G13D); type: cell-based; conditions: Homo sapiens, CTG 120 h
Method in brief: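 LOVO cells, 1000 per well in DMEM + 10% FCS, were plated overnight and then dosed with compound from DMSO stock. After 120 h at 37 °C, viability was read by CellTiter-Glo luminescence as a percentage of DMSO controls. IC50 was derived by four-parameter non-linear regression.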

AsPC-1 cells = test: AsPC-1 CTG proliferation assay (120 h) (pancreatic cancer, G12D); type: cell-based; conditions: Homo sapiens, ASPC1
Method in brief: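 AsPC-1 cells (KRAS G12D), 2000/well in RPMI with 10% FCS, seeded overnight, then treated with compound for 120 h at 37 °C. Viability by CellTiter-Glo luminescence as percent of DMSO control. IC50 from a four-parameter non-linear fit.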

[4] = McIlvaine buffer pH 4.5, read-out: solubility pH 4.5
[5] = McIlvaine buffer pH 6.8, read-out: solubility pH 6.8

| SMILES | fraction unbound [1] | IC50 (NCI-H2122 cells) | solubility at 24 h [2, 4] | solubility at 24 h [2, 5] | IC50 [3] | IC50 (LOVO cells) | IC50 (AsPC-1 cells) |
| --- | --- | --- | --- | --- | --- | --- | --- |
| C[C@H](Oc1cc(N2CCNC3(CCCC3)C2)nc(-c2noc3c2CCC[C@@]32CCCc3sc(N)c(C#N)c32)n1)[C@@H]1CCCN1C [II-41] | 0.1 | 1.65 µM | > 138 µg/mL | > 130 µg/mL | 0.49 µM | 0.703 µM | 0.269 µM |
| C[C@H](Oc1cc(-c2ccn([C@H]3CCCOC3)n2)nc(-c2noc3c2CCC[C@@]32CCCc3sc(N)c(C#N)c32)n1)[C@@H]1CCCN1C [II-42] | 0.1 | 0.357 µM | 119 µg/mL (≈ 186 µM) | 9 µg/mL (≈ 14 µM) | 0.034 µM | 0.149 µM | 1.89 µM |
| C[C@H](Oc1cc(-c2ccn(C[C@@H]3CCCO3)n2)nc(-c2noc3c2CCC[C@@]32CCCc3sc(N)c(C#N)c32)n1)[C@@H]1CCCN1C [II-43] | 0.11 | 0.102 µM | 121 µg/mL (≈ 189 µM) | 9 µg/mL (≈ 14 µM) | 0.037 µM | 0.12 µM | 2.05 µM |
| C[C@H](Oc1cc(C2CCCO2)nc(-c2noc3c2CCC[C@@]32CCCc3sc(N)c(C#N)c32)n1)[C@@H]1CCCN1C (some centres unmarked) [II-44] | 0.39 | 1.58 µM | > 115 µg/mL | 104 µg/mL (≈ 185 µM) | 0.028 µM | 0.092 µM | 2.16 µM |
| C[C@H](Oc1cc(N2CCNCC2)nc(-c2noc3c2CCC[C@@]32CCCc3sc(N)c(C#N)c32)n1)[C@@H]1CCCN1C [II-45] | 0.61 | 10.6 µM | > 135 µg/mL | > 118 µg/mL | 0.606 µM | 6.6 µM | 2.31 µM |
| C[C@H](Oc1cc(N2CC[C@@H](N(C)C)C2)nc(-c2noc3c2CCC[C@@]32CCCc3sc(N)c(C#N)c32)n1)[C@@H]1CCCN1C [II-47] | 0.34 | 2.02 µM | > 162 µg/mL | > 145 µg/mL | 0.24 µM | 0.459 µM | 0.991 µM |
| C[C@H](Oc1cc(N2CCC(N(C)C)CC2)nc(-c2noc3c2CCC[C@@]32CCCc3sc(N)c(C#N)c32)n1)[C@@H]1CCCN1C [II-48] | 0.62 | 3.1 µM | > 164 µg/mL | > 149 µg/mL | 0.724 µM | 0.736 µM | 1.49 µM |
| C[C@H](Oc1cc(-n2ccsc2=O)nc(-c2noc3c2CCC[C@@]32CCCc3sc(N)c(C#N)c32)n1)[C@@H]1CCCN1C [II-135] | 0.06 | 0.112 µM | 19 µg/mL (≈ 32.2 µM) | < 1 µg/mL | 0.004 µM | 0.051 µM | 1.39 µM |
